Read-outs that look alike come from different tables or passages of the source.
Key:
[1] = test system: zebra mussels (Dreissena polymorpha)
[2] = test system: Daphnia magna (water flea); assay: non-target organism screening, Daphnia cumulative mortality; format: in vivo; conditions: for lethal effect / toxicity towards non-target (Daphnia) organism: at a dose that totally prevents fouling by mussels; for toxicity to other non-target organisms (water fleas, Daphnia magna): summary statement
Protocol: Those compounds that were determined to be highly efficacious zebra mussel antifoulants with little or no toxicity were additionally assessed for toxicity in another non-target aquatic species. The freshwater cladoceran crustacean Daphnia magna (water flea) is commonly utilized for aquatic toxicity testing (Suedel et al., 1997), with 10,583 tests of toxic end points being reported for this species on the USEPA ECOTOX web site. Three replicates of 20 adult specimens of D. magna were exposed to each compound employing a dose range that was the same or greater than that used in zebra mussel antifouling studies. The conditions for toxicity testing of water fleas were the same as those used for testing zebra mussel antifouling and toxicity (i.e., polypropylene containers at 15° C.), except that test medium volume was 40 ml and exposure was increased to three days. Dead individuals were removed every 24 h and the total number of surviving individuals was recorded at the end of 1, 2, and 3 days. Although the level of Daphnia mortality was too low in most cases, when it was high enough to be reliably estimated then the Daphnia lethal dose values (i.e., LD50) were estimated using the same methods employed in the mussel byssal attachment studies. Uniformity of test organisms was maintained by establishing a laboratory D. magna culture with specimens initially purchased from a biological supply company.

[3] = test system: zebra mussel; conditions: controlled laboratory setting; cited from earlier work
[4] = mixed with paint applied to a surface or applied as a dust; cited from earlier work
[5] = target: vanilloid receptor 1 (VR1) receptor (Homo sapiens, UniProt Q8NER1); conditions: cited from earlier work
Chain of vanilloid receptor 1 (VR1) receptor (Q8NER1 whole entry, species assumed): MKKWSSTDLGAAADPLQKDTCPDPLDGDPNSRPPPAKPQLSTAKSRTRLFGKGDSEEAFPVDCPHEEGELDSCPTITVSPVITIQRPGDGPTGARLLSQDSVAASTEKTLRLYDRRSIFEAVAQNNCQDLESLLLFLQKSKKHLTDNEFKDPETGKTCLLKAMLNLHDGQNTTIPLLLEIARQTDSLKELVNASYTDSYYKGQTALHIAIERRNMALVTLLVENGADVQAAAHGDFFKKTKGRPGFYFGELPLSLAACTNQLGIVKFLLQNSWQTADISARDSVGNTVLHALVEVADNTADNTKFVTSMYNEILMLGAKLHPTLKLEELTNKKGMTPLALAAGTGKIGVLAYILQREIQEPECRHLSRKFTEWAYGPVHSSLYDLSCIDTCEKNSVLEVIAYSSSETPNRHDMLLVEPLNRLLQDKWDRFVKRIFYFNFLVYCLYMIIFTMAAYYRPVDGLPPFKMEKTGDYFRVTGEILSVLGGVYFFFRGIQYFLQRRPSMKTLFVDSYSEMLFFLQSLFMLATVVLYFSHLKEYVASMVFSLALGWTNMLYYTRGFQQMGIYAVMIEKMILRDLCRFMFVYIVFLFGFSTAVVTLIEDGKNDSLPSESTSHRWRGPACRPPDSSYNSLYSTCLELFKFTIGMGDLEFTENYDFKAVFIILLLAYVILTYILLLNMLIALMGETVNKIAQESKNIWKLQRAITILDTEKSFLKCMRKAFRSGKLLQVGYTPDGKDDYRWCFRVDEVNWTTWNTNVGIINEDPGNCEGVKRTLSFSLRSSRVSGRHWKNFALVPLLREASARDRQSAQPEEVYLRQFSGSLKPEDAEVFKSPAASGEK

[6] = single high concentration (e.g., 30 μM), 48 h, FIG. 4 and FIG. 6
[7] = single high concentration (e.g., 30 μM), second 48 h post-exposure / both periods

Structure (SMILES) | antifouling efficacy (fraction of unattached mussels during the first 48 h) ([1]; in vivo) | target organism residual effects ("toxicity") or lethality ([1]; in vivo) | zebra mussel antifouling efficacy ([1]; in vivo) | lethal effect / toxicity towards non-target (Daphnia) organism [2] | residual effect to the target organism ([1]; in vivo) | other results
CCCCC/C=C\C/C=C\C/C=C\C/C=C\CCCCOC(CO)CO [noladin ether] | – | – | – | – | – | antifouling efficacy (fraction of unattached mussels during the first 48 h) [1, 6]: efficacious; target organism residual effects ("toxicity") or lethality [1, 7]: minimal
CC1=CC[C@H]2[C@@H](C1)c1c(O)cc(CC#CCCCNS(C)(=O)=O)cc1OC2(C)C [O-2050] | efficacious | minimal | efficacious | no lethal effect | – | residual effect at a dose that totally prevents biofouling ([1]; 6 μM): no residual effect; antifouling potency ([1]; in vivo): higher potency; dose that totally prevents fouling by mussels ([1]; in vivo): 6 µM
CCCCC/C=C\C/C=C\C/C=C\C/C=C\CCCC(=O)NCCO [anandamide] | efficacious | minimal | efficacious | no lethal effect | no residual effect | dose that totally prevents fouling by mussels ([1]; in vivo): 15 µM; toxicity to the target organism (zebra mussels) ([1]; in vivo): reduced toxicity; toxicity to other non-target organisms (water fleas, Daphnia magna) [2]: reduced toxicity
COc1cc(CNC(=O)CCCC/C=C/C(C)C)ccc1O (racemic) [capsaicin, reference compound] | – | – | efficacious | no toxicity | little residual effect | toxicity to the target organism (zebra mussels) ([1]; in vivo): reduced toxicity; toxicity to other non-target organisms (water fleas, Daphnia magna) [2]: reduced toxicity; zebra mussel antifoulant effect [3]: effective; antifouling effectiveness compared with copper [4]: not as effective as copper
COc1cc(CNC(=O)CCCC/C=C\C(C)C)ccc1O [compound 29] | efficacious | minimal | – | – | – | attachment of zebra mussels to aquatic striatum ([1]; in vivo): prevents the attachment; toxicity to the target organism ([1]; in vivo): non-toxic; action on the vanilloid receptor 1 (VR1) receptor [5]: does not act on
CCCCC/C=C\C/C=C\CCCCCCCC(=O)NCCO [Linoleyl ethanolamide] | efficacious | minimal | – | – | – | –
COc1ccc(C(=O)c2c(C)n(CCN3CCOCC3)c3cc(I)ccc23)cc1 [AM630] | efficacious | minimal | efficacious | no significant lethality | some residual effect | dose that totally prevents fouling by mussels ([1]; in vivo): 4 µM
CCCCCCCCC(=O)NCc1ccc(O)c(OC)c1 [pseudocapsaicin, N-vanillylnonanamide] | – | – | efficacious | not lethal | little residual effect | antifouling ([1]; 20 μM): 100%; antifouling ([1]; 30 μM): 100%; toxicity to the target organism (zebra mussels) ([1]; in vivo): reduced toxicity; Daphnia toxicity over controls ([2]; 72 h exposure, 20 and 30 μM): no measurable toxicity over controls; lethal effect / toxicity towards non-target (Daphnia) organism ([2]; listed as N-vanillylnonanamide): no significant toxicity; Daphnia mortality ([2]; highest test dose (60 μM), 72 h time point): Statistically significant Daphnia mortality; toxicity to other non-target organisms (water fleas, Daphnia magna) [2]: reduced toxicity
CCCCCCCCCCCC(=O)NCC(=O)NN=Cc1ccc(OC)c(OC)c1 [N-(2-(2-(3,4-dimethoxybenzylidene)hydrazine)-2-oxoethyl)dodecanamide] | efficacious | minimal | – | – | – | –
COc1cc(CNC(=O)CCCC/C=C/C(C)C)ccc1O [compound 28, 8-methyl-N-vanillyl-trans-6-nonenamide] | efficacious | minimal | – | – | – | toxicity of the stereoisomer towards the non-target (Daphnia) organism ([2]; inferred from the result for racemic capsaicin): neither stereoisomer (E or Z) is toxic
CCCCCCCCCC(=O)NC(CC)CO (centres unmarked) [N-(1-(hydroxymethyl)propyl)decanamide] | efficacious | minimal | – | – | – | –
CCCCCCC(C)(C)c1ccc([C@@H]2C[C@H](O)CC[C@@H]2CCCO)c(O)c1 [CP55,940] | – | – | – | – | – | antifouling efficacy (fraction of unattached mussels during the first 48 h) [1, 6]: efficacious; target organism residual effects ("toxicity") or lethality [1, 7]: minimal
